In general, melting point refers to the temperature of the solid-liquid transition.

Where a name gives a salt, the structure may show the parent alone.

For `CCC(CC)c1ccc(Cl)c2nc(Nc3ccc(Br)cc3Cl)n(C)c12` [Example 85, N-(4-Bromo-2-chlorophenyl)-4-chloro-7-(1-ethylpropyl)-1-methyl-1H-benzimidazol-2-amine], the melting point fell in the range of 127 to 129 °C.

With `CCC(CC)c1ccc(Cl)c2nc(Nc3c(Cl)cc(OC(F)(F)F)cc3Cl)n(C)c12` [Example 79, 4-Chloro-N-[2,6-dichloro-4-(trifluoromethoxy)phenyl]-7-(1-ethylpropyl)-1-methyl-1H-benzimidazol-2-amine], the melting point fell in the range of 147 to 149 °C.

`CCc1cc(CC)n(-c2cccc3nc(Oc4c(C)cc(Cl)cc4Cl)n(C)c23)n1` [Example 162, 2-(2,4-Dichloro-6-methylphenoxy)-7-(3,5-diethyl-1H-pyrazol-1-yl)-1-methyl-1H-benzimidazole] had a melting point of 115 to 119 °C.

Compound `CCCC(CCC)c1ccc(Cl)c2nc(Nc3ccc(Br)cc3Cl)n(C)c12` [Example 93, N-(4-Bromo-2-chlorophenyl)-4-chloro-1-methyl-7-(1-propylbutyl)-1H-benzimidazol-2-amine] displayed a melting point of 145 to 147 °C.

The compound `CCCC(CCC)c1ccc(Cl)c2nc(Nc3c(C)cc(Cl)cc3C)n(C)c12` [Example 114, 4-Chloro-N-(4-chloro-2,6-dimethylphenyl)-1-methyl-7-(1-propylbutyl)-1H-benzimidazol-2-amine] showed a melting point of 230 to 232 °C.

Take `CCC(CC)c1ccc(C(F)(F)F)c2nc(Nc3c(C)cc(Cl)cc3OC)n(C)c12` [Example 158, N-(4-Chloro-2-methoxy-6-methylphenyl)-7-(1-ethylpropyl)-1-methyl-4-(trifluoromethyl)-1H-benzimidazol-2-amine]: the melting point lay within 187 to 188 °C.

`CCC(CC)c1ccc(O)c2nc(Oc3ccc(Cl)cc3Br)n(C)c12` [Example 147, 2-(2-Bromo-4-chlorophenoxy)-7-(1-ethylpropyl)-1-methyl-1H-benzimidazol-4-ol] showed a melting point of 175 to 177 °C.

`CCC(CC)c1ccc(Cl)c2nc(Oc3c(OC)cc(C)nc3C)n(C)c12` [Example 139, 4-Chloro-7-(1-ethylpropyl)-2-[(4-methoxy-2,6-dimethylpyridin-3-yl)oxy]-1-methyl-1H-benzimidazole] displayed a melting point of 183 to 184 °C.

`CCC(CC)c1ccc(Cl)c2nc(Oc3c(C)cc(Cl)cc3OC)n(C)c12` [Example 144, 4-Chloro-2-(4-chloro-2-methoxy-6-methylphenoxy)-7-(1-ethyl-1-propyl)-1-methyl-1H-benzimidazole] had a melting point of 165 to 167 °C.

The compound `CCCC(CCC)c1ccc(Cl)c2nc(Nc3cc(C(F)(F)F)c(Cl)cc3Cl)n(C)c12` [Example 113, 4-Chloro-N-[2,4-dichloro-5-(trifluoromethyl)phenyl]-1-methyl-7-(1-propylbutyl)-1H-benzimidazol-2-amine] returned a melting point of 206 to 208 °C.

Turning to `CCC(CC)c1ccc(C#N)c2nc(Nc3c(C)cc(Cl)cc3OC)n(C)c12` [Example 152, 2-[(4-Chloro-2-methoxy-6-methylphenyl)amino]-7-(1-ethylpropyl)-1-methyl-1H-benzimidazole-4-carbonitrile], the melting point lay in the range of 223 to 225 °C.

For the compound `CCC(CC)c1cc(Br)cc2nc(Oc3c(C)cc(Cl)cc3C)n(C)c12` [Example 136, 5-Bromo-2-(4-chloro-2,6-dimethylphenoxy)-7-(1-ethylpropyl)-1-methyl-1H-benzimidazole], the melting point lay within 214 to 216 °C.

`CCCC(CCC)c1ccc(Cl)c2nc(Nc3ccc(Cl)cc3OC(F)(F)F)n(C)c12` [Example 94, 4-Chloro-N-[4-chloro-2-(trifluoromethoxy)phenyl]-1-methyl-7-(1-propylbutyl)-1H-benzimidazol-2-amine] showed a melting point of 130 to 132 °C.

In the case of `COc1cc(Cl)cc(C)c1Nc1nc2c(Cl)ccc(C(O)(C(C)(C)C)C(C)(C)C)c2n1C` [Example 106, 3-{4-Chloro-2-[(4-chloro-2-methoxy-6-methylphenyl)amino]-1-methyl-1H-benzimidazol-7-yl}-2,2,4,4-tetramethylpentan-3-ol], the melting point was in the range of 246 to 248 °C.

As to `CCC(CC)c1ccc(Cl)c2nc(Nc3ccc(OC(F)(F)F)cc3Cl)n(C)c12` [Example 87, 4-Chloro-N-[2-chloro-4-(trifluoromethoxy)phenyl]-7-(1-ethylpropyl)-1-methyl-1H-benzimidazol-2-amine], the melting point fell in the range of 122 to 123 °C.

In turn, `CCC(CC)c1ccc(CN2CCCC2)c2nc(Oc3c(C)cc(Cl)cc3Cl)n(C)c12` [Example 156, 2-(2,4-Dichloro-6-methylphenoxy)-7-(1-ethylpropyl)-1-methyl-4-(pyrrolidin-1-ylmethyl)-1H-benzimidazole] gave a melting point of 107 to 108 °C.

As for `CCCC(CCC)c1ccc(Cl)c2nc(Oc3ccc4c5c3CCN5C(=O)CC4)n(C)c12` [Example 134, 9-{[4-Chloro-1-methyl-7-(1-propylbutyl)-1H-benzimidazol-2-yl]oxy}-1,2,5,6-tetrahydro-4H-pyrrolo[3,2,1-ij]quinolin-4-one], the melting point fell in the range of 150 to 152 °C.

Compound `CCCC(CCC)c1ccc(Cl)c2nc(Oc3c(Cl)cc(Cl)cc3Cl)n(C)c12` [Example 132, 4-Chloro-1-methyl-7-(1-propylbutyl)-2-(2,4,6-trichlorophenoxy)-1H-benzimidazole] showed a melting point of 148 to 150 °C.

Regarding `CCCC(CCC)c1ccc(Cl)c2nc(Nc3c(C)cc(Br)cc3C)n(C)c12` [Example 115, N-(4-Bromo-2,6-dimethylphenyl)-4-chloro-1-methyl-7-(1-propylbutyl)-1H-benzimidazol-2-amine], the melting point lay in the range of 234 to 236 °C.

Take `CCC(CC)c1ccc(Cl)c2nc(Nc3ccc(Cl)cc3OC(F)(F)F)n(C)c12` [Example 81, 4-Chloro-N-[4-chloro-2-(trifluoromethoxy)phenyl]-7-(1-ethylpropyl)-1-methyl-1H-benzimidazol-2-amine]: the melting point was in the range of 126 to 128 °C.

The compound `CCC(CC)c1ccc(C(F)(F)F)c2nc(Oc3ccc(Cl)cc3Br)n(C)c12` [Example 161, 2-(2-Bromo-4-chlorophenoxy)-7-(1-ethylpropyl)-1-methyl-4-(trifluoromethyl)-1H-benzimidazole] displayed a melting point of 119 to 120 °C.

`CCC(CC)c1ccc(C(=O)OC)c2nc(Oc3c(C)cc(Cl)cc3Cl)n(C)c12` [Example 153, Methyl 2-(2,4-dichloro-6-methylphenoxy)-7-(1-ethylpropyl)-1-methyl-1H-benzimidazole-4-carboxylate] gave a melting point of 177 to 178 °C.

`COc1cc(Cl)cc(C)c1Nc1nc2cccc(-c3c(OC)cccc3OC)c2n1C` (as salt: trifluoroacetic acid salt) [Example 71, N-(4-chloro-2-methoxy-6-methylphenyl)-7-(2,6-dimethoxyphenyl)-1-methyl-1H-benzimidazol-2-amine Trifluoroacetic acid salt] displayed a melting point of 288 to 289 °C.

Consider `CCCC(CCC)c1ccc(Cl)c2nc(Oc3c(OC)cc(C)cc3OC)n(C)c12` [Example 133, 4-Chloro-2-(2,6-dimethoxy-4-methylphenoxy)-1-methyl-7-(1-propylbutyl)-1H-benzimidazole], for which the melting point fell in the range of 203 to 205 °C.

As to `CCC(CC)c1ccc(Cl)c2nc(Nc3ccc(Cl)cc3Cl)n(C)c12` [Example 80, 4-Chloro-N-(2,4-dichlorophenyl)-7-(1-ethylpropyl)-1-methyl-1H-benzimidazol-2-amine], the melting point is 130 to 132 °C.
